Experimental data reported in ChEMBL document CHEMBL5214905 (J Med Chem, 2021).
Calls of active or inactive are those of the source. The calls are words filed in the database; no cut-off is given here.

How the values were obtained:
MDR1 [1] = experiment: Apparent permeability in MDCKII expressing MDR1 cells across apical to basolateral side; format: ADME, cell-based, Canis lupus familiaris, MDCK-II; conditions: dog, MDCK-MDR1; read-out: permeability
BCRP [2] = experiment: Apparent permeability in human Caco-2 expressing BCRP cells across basolateral to apical side; format: ADME, cell-based; conditions: read-out: permeability
MDR1 [3] = experiment: Efflux ratio of apparent permeability across basolateral to apical side to apical to basolateral side in MDCKII expressing MDR1 cells; format: ADME, cell-based, Canis lupus familiaris, MDCK-II; conditions: dog, MDCK-MDR1
BCRP [4] = experiment: Efflux ratio of apparent permeability across basolateral to apical side to apical to basolateral side in human Caco-2 expressing BCRP cells in presence of novobiocin; format: ADME, cell-based; conditions: Caco-2, with novobiocin (concentration not stated)
BCRP [5] = experiment: Permeability in human Caco-2 expressing BCRP cells across apical to basolateral side by measuring ratio of the final amount of the compound in donor and receiver chambers to the initial amount of the compound in the donor chamber relative to control; format: ADME, cell-based
MDR1 [6] = experiment: Permeability in MDCKII expressing MDR1 cells across basolateral to apical side by measuring ratio of the final amount of the compound in donor and receiver chambers to the initial amount of the compound in the donor chamber relative to control; format: ADME, cell-based, Canis lupus familiaris, MDCK-II; conditions: dog, MDCK-MDR1
BCRP [7] = experiment: Permeability in human Caco-2 expressing BCRP cells across basolateral to apical side by measuring ratio of the final amount of the compound in donor and receiver chambers to the initial amount of the compound in the donor chamber relative to control; format: ADME, cell-based
BCRP [8] = experiment: Permeability in human Caco-2 expressing BCRP cells across basolateral to apical side by measuring ratio of the final amount of the compound in donor and receiver chambers to the initial amount of the compound in the donor chamber in presence of novobiocin relative to control; format: ADME, cell-based; conditions: Caco-2, with novobiocin (concentration not stated)
[9] = Unbound fraction in mouse brain by LC-MS/MS analysis relative to control; format: ADME, tissue-based
[10] = AUC (0 to 12 hrs) in Sprague-Dawley rat plasma at 100 mg/kg, po measured after 0.083 to 24 hrs by HPLC analysis; format: ADME, organism-based; set-up: time lower 0.083 hrs, dose 100 mg/kg, time upper 24 hrs, route po
[11] = Half life in Sprague-Dawley rat plasma at 100 mg/kg, iv by HPLC analysis; format: ADME, organism-based
[12] = Cmax in Sprague-Dawley rat plasma at 100 mg/kg, po measured after 0.083 to 24 hrs by HPLC analysis; format: ADME, organism-based; set-up: time lower 0.083 hrs, dose 100 mg/kg, time upper 24 hrs, route po
[13] = Volume of distribution at steady state in Sprague-Dawley rat plasma at 100 mg/kg, po measured after 0.083 to 24 hrs by HPLC analysis; format: ADME, organism-based; conditions: in vivo, time 0.083-24 hrs
[14] = Clearance in Sprague-Dawley rat plasma at 100 mg/kg, iv measured after 0.083 to 24 hrs by HPLC analysis; format: ADME, organism-based; conditions: time 0.083-24 hrs
[15] = Oral bioavailability in Sprague-Dawley rat plasma by measuring dose-corrected area under the curve (AUC) oral divided by AUC intravenous at 100 mg/kg measured after 0.083 to 24 hrs by HPLC analysis relative to control; format: ADME, organism-based; conditions: time 0.083-24 hrs
Mus musculus [16] = experiment: Neuroprotective activity in MPTP induced C57BL/6J mouse neurodegenerative model treated with MPTP for 7 days followed by compound administration at 10 to 30 mg/kg, po measured on day 6 to 12 upto 180 secs at 25 rpm by rota-rod test; format: functional, organism-based; conditions: dose 10-30 mg/kg, time 6-12 day
[17] = Toxicity in MPTP induced C57BL/6J mouse neurodegenerative model assessed as no change in body weight treated with MPTP for 7 days followed by compound administration at 10 to 100 mg/kg, po measured upto 32 days; format: organism-based; conditions: in vivo, 768 h, dose 10-100 mg/kg, time < 32 day
[18] = Toxicity in MPTP induced C57BL/6J mouse neurodegenerative model assessed as no change in kidney weight treated with MPTP for 7 days followed by compound administration at 10 to 30 mg/kg, po measured upto 32 days; format: organism-based; conditions: in vivo, 768 h, dose 10-30 mg/kg, time < 32 day
Mus musculus [19] = experiment: Neuroprotective activity in MPTP induced C57BL/6J mouse neurodegenerative model assessed as increase in tyrosine hydroxylase expression in positive neuron cells in brain SNpc treated with MPTP for 7 days followed by compound administration at 30 mg/kg, po by IHC staining method; format: functional, organism-based; conditions: Substantia nigra pars compacta
Mus musculus [20] = experiment: Neuroprotective activity in MPTP induced C57BL/6J mouse neurodegenerative model assessed as normal cell morphology in neuron cells treated with MPTP for 7 days followed by compound administration at 30 mg/kg, po by IHC staining method; format: functional, organism-based
Mus musculus [21] = experiment: Neuroprotective activity in MPTP induced C57BL/6J mouse neurodegenerative model assessed as normal fiber innervation in brain treated with MPTP for 7 days followed by compound administration at 30 mg/kg, po by IHC staining method; format: functional, organism-based
Mus musculus [22] = experiment: Neuroprotective activity in MPTP induced C57BL/6J mouse neurodegenerative model assessed as decrease in Iba-1 expression in positive neuron cells in brain striatum treated with MPTP for 7 days followed by compound administration at 30 mg/kg, po by IHC staining method; format: functional, organism-based
Mus musculus [23] = experiment: In vivo antiinflammatory activity in MPTP induced C57BL/6J mouse neurodegenerative model assessed as decrease in IL-1 beta expression treated with MPTP for 7 days followed by compound administration at 30 mg/kg, po by Western blotting analysis; format: functional, organism-based
Mus musculus [24] = experiment: Neuroprotective activity in MPTP induced neurodegenerative C57BL/6J mouse model assessed as decrease in tryptophan metabolite NFK in mouse striatum treated with MPTP for 7 days followed by compound administration at 30 mg/kg, po by LC-MS/MS analysis; format: functional, organism-based
Mus musculus [25] = experiment: Neuroprotective activity in MPTP induced neurodegenerative C57BL/6J mouse model assessed as decrease in tryptophan metabolite QUIN in mouse substantia nigra treated with MPTP for 7 days followed by compound administration at 30 mg/kg, po by LC-MS/MS analysis; format: functional, organism-based
CYP2C9 = CYP2C9 (Homo sapiens, UniProt P11712); experiment: Inhibition of human liver microsome CYP2C9 using 4'-hydroxy diclofenac as substrate incubated at 3 uM for 10 mins by LC/MS/MS analysis relative to control; conditions: liver microsomes, probe 4'-hydroxy diclofenac (so in the source)
[26] = molecular target: Receptor-type tyrosine-protein kinase FLT3 (Homo sapiens) (UniProt P36888); experiment: Inhibition of human wildtype partial length FLT3 expressed in bacterial system at 10 uM relative to control
Chain of Receptor-type tyrosine-protein kinase FLT3 (Homo sapiens) (P36888 whole entry): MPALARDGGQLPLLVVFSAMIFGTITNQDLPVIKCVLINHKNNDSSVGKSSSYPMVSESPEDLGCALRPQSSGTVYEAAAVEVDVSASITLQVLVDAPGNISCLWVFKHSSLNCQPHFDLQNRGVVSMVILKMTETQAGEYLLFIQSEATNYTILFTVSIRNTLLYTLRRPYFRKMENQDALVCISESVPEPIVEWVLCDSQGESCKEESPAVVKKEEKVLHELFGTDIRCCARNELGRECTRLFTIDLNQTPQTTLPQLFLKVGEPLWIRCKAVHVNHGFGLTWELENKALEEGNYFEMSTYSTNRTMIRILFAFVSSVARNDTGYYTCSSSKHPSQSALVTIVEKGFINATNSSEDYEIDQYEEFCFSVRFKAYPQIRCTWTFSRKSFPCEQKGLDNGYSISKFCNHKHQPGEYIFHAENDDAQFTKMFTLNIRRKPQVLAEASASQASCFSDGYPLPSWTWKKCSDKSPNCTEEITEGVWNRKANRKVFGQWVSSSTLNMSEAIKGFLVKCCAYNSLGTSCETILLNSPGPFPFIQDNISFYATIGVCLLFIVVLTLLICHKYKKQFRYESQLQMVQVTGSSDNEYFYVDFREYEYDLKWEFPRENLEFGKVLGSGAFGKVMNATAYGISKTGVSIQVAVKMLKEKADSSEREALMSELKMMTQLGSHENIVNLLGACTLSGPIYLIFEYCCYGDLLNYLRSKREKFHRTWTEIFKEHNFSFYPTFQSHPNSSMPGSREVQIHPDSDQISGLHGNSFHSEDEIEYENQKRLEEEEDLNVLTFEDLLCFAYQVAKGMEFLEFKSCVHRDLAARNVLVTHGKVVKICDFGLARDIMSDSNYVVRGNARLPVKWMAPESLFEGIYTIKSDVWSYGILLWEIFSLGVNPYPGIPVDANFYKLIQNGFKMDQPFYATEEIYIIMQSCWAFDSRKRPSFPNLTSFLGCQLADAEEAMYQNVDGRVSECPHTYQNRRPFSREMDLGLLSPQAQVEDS

Chain of CYP2C9 (P11712 whole entry): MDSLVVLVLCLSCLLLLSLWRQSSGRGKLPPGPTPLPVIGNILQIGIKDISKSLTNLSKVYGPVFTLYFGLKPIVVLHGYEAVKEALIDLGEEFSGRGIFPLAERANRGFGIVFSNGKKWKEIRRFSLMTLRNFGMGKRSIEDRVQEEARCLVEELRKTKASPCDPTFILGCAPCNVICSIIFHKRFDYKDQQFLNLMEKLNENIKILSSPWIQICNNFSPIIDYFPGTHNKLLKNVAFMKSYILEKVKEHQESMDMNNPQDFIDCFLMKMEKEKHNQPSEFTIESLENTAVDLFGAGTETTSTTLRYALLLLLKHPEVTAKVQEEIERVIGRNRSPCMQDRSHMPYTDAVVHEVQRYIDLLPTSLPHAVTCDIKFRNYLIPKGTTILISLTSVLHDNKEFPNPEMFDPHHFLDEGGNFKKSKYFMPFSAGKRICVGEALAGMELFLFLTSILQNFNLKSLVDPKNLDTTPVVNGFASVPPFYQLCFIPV

O[C@@H]1CCCC[C@H]1CNc1cc(Br)cc2[nH]ncc12
Papp A→B (MDR1 [1]): 13.5 ×10⁻⁶ cm/s
Papp B→A (BCRP [2]): 10.4 ×10⁻⁶ cm/s
efflux ratio (MDR1 [3]): 0.77
efflux ratio (BCRP [4]): 0.51
recovery (BCRP [5]): 42.2%
recovery (MDR1 [6]): 81.9%
recovery (BCRP [7]): 74.5%
recovery (BCRP [8]): 74.9%
Fu [9]: 0.25%
AUC(0-t) [10]: 22200 ng·h/mL
half-life [11]: 10.1 h
Cmax [12]: 6870 ng/mL
Vdss [13]: 25.45 L/kg
clearance [14]: 40.5 mL/min/kg
bioavailability [15]: 73.2%
Activity (Mus musculus [16]): Active
Activity [17]: Non-Toxic
Activity [18]: Non-Toxic
Activity (Mus musculus [19]): Active
Activity (Mus musculus [20]): Active
Activity (Mus musculus [21]): Active
Activity (Mus musculus [22]): Active
Activity (Mus musculus [23]): Active
Activity (Mus musculus [24]): Active
Activity (Mus musculus [25]): Active
inhibition at 10 min, 3 µM (CYP2C9): 83.4%
inhibition [26]: > 90%
